Results as given in ChEMBL document CHEMBL4396870, “Pharmacological Chaperones for the Treatment of α-Mannosidosis” (J Med Chem, 2019).
Changes are numbered by the printed parent chain.

Legend:
[1] = test system: T1, Lysosomal alpha-mannosidase (Homo sapiens), O00754 [R916C]; assay: Chaperone activity at human Lysosomal alpha-mannosidase R916C mutant transfected in human […] knockout HAP1 cells assessed as enzyme activity enhancement at 2 uM incubated for 96 hrs relative to control
T1 sequence (whole entry): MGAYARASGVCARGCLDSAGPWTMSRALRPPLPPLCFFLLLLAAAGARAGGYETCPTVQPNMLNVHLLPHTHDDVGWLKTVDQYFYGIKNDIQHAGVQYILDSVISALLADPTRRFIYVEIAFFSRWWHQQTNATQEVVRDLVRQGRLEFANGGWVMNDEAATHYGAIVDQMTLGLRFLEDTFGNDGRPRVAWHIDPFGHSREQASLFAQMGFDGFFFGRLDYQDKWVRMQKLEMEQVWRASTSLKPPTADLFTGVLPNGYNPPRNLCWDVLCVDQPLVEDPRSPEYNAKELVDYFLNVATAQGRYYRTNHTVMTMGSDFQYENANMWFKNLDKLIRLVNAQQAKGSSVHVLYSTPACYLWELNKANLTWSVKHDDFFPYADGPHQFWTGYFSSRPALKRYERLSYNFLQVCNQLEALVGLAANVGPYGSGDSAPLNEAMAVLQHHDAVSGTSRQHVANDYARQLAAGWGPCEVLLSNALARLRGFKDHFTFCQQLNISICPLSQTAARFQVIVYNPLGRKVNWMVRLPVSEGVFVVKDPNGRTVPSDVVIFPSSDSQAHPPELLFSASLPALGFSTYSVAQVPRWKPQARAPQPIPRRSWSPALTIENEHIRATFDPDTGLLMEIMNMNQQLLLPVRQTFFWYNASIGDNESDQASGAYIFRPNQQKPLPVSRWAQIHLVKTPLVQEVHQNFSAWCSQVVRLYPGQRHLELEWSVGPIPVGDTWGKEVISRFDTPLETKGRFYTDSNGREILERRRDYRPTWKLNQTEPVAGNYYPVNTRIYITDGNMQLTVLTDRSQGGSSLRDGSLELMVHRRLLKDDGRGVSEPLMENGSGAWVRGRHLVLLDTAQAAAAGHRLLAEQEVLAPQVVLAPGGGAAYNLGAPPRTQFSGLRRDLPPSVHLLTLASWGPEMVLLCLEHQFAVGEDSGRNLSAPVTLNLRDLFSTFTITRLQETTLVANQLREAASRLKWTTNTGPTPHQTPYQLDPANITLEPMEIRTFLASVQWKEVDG

[2] = test system: T2, Lysosomal alpha-mannosidase (Homo sapiens), O00754 [C55F]; assay: Chaperone activity at human Lysosomal alpha-mannosidase C55F mutant transfected in human […] knockout HAP1 cells assessed as enzyme activity enhancement at 20 uM incubated for 96 hrs relative to control
T2 sequence (whole entry): T1 sequence (whole entry) with C55F, C916R

Activity [1] [%] | Activity [2] [%] | Compound
33 | 16 | COC[C@H]1O[C@@H]2O[C@H]3[C@H](OC)[C@@H](OC)[C@@H](O[C@H]4[C@H](OC)[C@@H](OC)[C@@H](O[C@H]5[C@H](OC)[C@@H](OC)[C@@H](O[C@H]6[C@H](OC)[C@@H](OC)[C@@H](O[C@H]7[C@H](OC)[C@@H](OC)[C@@H](O[C@H]8[C@H](OC)[C@@H](OC)[C@@H](O[C@H]1[C@H](OC)[C@H]2OC)O[C@@H]8COC)O[C@@H]7COC)O[C@@H]6COC)O[C@@H]5COCc1cn(CCCCCCN[C@@H]2[C@@H](O)[C@@H](O)[C@H](O)[C@H]5COC(=O)N52)nn1)O[C@@H]4COC)O[C@@H]3COC
26 | 111 | CC(C)(C)OC(=O)NCCCCCCCCCN[C@@H]1[C@@H](O)[C@@H](O)[C@H](O)[C@H]2COC(=O)N21
